Results reported in article PMC3284452, “Decreased defluorination using the novel beta-cell imaging agent [^18F]FE-DTBZ-d4 in pigs examined by PET” (EJNMMI Research, 2011).
“And” between values parts separate entries of the source, which are not always exact repeats. Equal values may be shown once. Read-outs that look alike come from different tables or passages of the source. One block for each molecule: values may come before it.

Experiments:
[1] = Radiochemical stability of formulated product (analytical HPLC); type: physicochemical; conditions: for up to 5 h
Procedure: The radiochemical purity, identity, and stability of [^18F]FE-DTBZ-d4 were determined by analytical HPLC using a reverse-phase μBondapak column (C18, 3.9 Ø × 300 mm, 10 μm, Waters Corporation) with mobile phase CH3CN/10 mM H3PO4 (15:85) and a flow rate of 3 mL/min. The effluent was monitored with an UV absorbance detector (λ = 214 nm) coupled with a radioactive detector (β-flow, Beckman Coulter, Inc., Fullerton, CA, USA). The identity of [^18F]FE-DTBZ-d4 was confirmed by co-injection with the authentic nonradioactive FE-DTBZ-d4.

[2] = PET/CT biodistribution in piglets; type: in vivo
Procedure: Male Swedish landrace piglets (n = 4, 15 to 17 kg, 11 to 14 weeks old) were anesthetized by Zoletil forte (Virbac, Carros Cedex, France). The animals were intubated and placed on a ventilator, and the anesthesia was maintained by 2.5% sevofluran. Normoglycemia was confirmed by determining blood glucose content (plasma glucose concentration 4.4 to 7.6 mM). The animal experiments were approved by the local ethics committee for animal research and performed in accordance with local institutional and Swedish national rules and regulations.
The PET/CT studies were performed using a Discovery ST scanner (General Electric, Milwaukee, WI, USA). All scans were acquired in 2D mode and reconstructed by OSEM iterative algorithm. Four piglets were administered 3.4 to 16.3 MBq/kg [^18F]FE-DTBZ-d4 as an intravenous [i.v.] bolus, and the biodistribution as well as the kinetics of the tracer in the abdomen was studied with a dynamic sequence over 90 min (the head first, prone, 4 frames × 30 s, 3 × 1 min, 5 × 3 min and 14 × 5 min). Arterial blood samples were acquired during the first 90 min, and both the plasma- and whole blood volume-corrected tracer contents were measured using the well counter. A whole-body PET/CT examination was performed 100 to 120 min post-administration.
The data in this study was compared to previously published PK/PD porcine data on non-deuterated [^18F]-FE-DTBZ. For details on the methodologies used in this study, see Eriksson et al..
PET and CT images were analyzed by PMOD (PMOD Technologies Ltd., Zürich, Switzerland). Values are given as means ± standard error of the mean [SEM] unless otherwise stated, and statistics are based on Student's t test.

[3] = Estimation of tracer defluorination by kinetic modeling of cortical bone uptake; type: in vivo, piglets; conditions: for half-life: male, Swedish landrace, pig, intravenous; for half-life / kdefluorination, average / kdefluorination: plasma; for half-life / t1/2 (defluorination) / kdefluorination, average / kdefluorination: piglets
From the text: Since the studies on [^18F]FE-DTBZ had been performed previously without metabolite correction analysis, we decided to quantify the defluorination retroactively by kinetic modeling of the cortical bone uptake. When modeling the PK/PD of a PET tracer, we generally study the relationship between three different functions (Equation 1) which we can express in a vector form; the input function [Cinput], the transfer function [HTR], and the output function [Ctissue] were defined as follows: […]
The gradual accumulation of radioactivity in the cortical bone tissue starting around 5 min after administration was assumed to consist entirely of [^18F]F^- uptake. It is difficult to delineate the cortical bone structures in the spinal column due to its relative small thickness even if isocontour thresholding is used. Partial volume effects [PVEs] will still yield kinetics containing contributions from both the cortical bone and bone marrow. […] To reduce the contribution from non-cortical sources, VOIs over the bone marrow were drawn, and the associated kinetics was subtracted from the cortical isocontour VOIs. The resulting kinetics after this operation was assessed to describe [^18F]F^- PK/PD in the cortical bone tissue and used as the output curve Ctissue for the quantification of tracer defluorination.
The Cinput of [^18F]F^- is in this specific case not created by an instantaneous bolus, but rather from a gradual reaction where [^18F]FE-DTBZ or [^18F]FE-DTBZ-d4 is the substrate and [^18F]F^- is the product. The rate of defluorination can then be expressed in a single parameter kdefluorination if we assume that the reaction is concentration-dependent and unchanging over time (or during the time frame investigated here). Cin is then uniquely determined from the arterial blood plasma curve [Cp] and kdefluorination (Equation 3): […]
The defluorination rate constant in plasma can then be determined by minimizing Equation 4: […]
All optimization was performed using MatLab 7.8.0 (MathWorks, Inc., Natick, MA, USA).

[4] = system: VMAT2; assay: In vitro homogenate saturation binding (human endocrine and exocrine pancreatic tissue homogenates); conditions: human islet vs exocrine homogenates
Procedure: Endocrine (n = 4, 80% to 85% islets) or exocrine (n = 4) tissue preparations were isolated from human pancreata and homogenized in 50 mM tris(hydroxymethyl)aminomethane [TRIS] by a Polytron PT3000 homogenator (Kinematica AG, Littau, Switzerland). The tissue homogenates (0.5 to 6 mg/mL) were incubated in 1 mL of 50 mM TRIS with different concentrations of tracer around an expected dissociation constant Kd of 3 nM. The non-displaceable binding was determined by addition of 10 to 20 μM tetrabenazine (BIOTREND Chemikalien GmbH, Cologne, Germany).
All samples were incubated at RT for 60 min to reach an equilibrium and then moved onto a 1.2 μm Whatman filter (Brandel, Gaithersburg, MD, USA; pretreated with 0.05% polyethylenimine for > 1 h) by a C-48 cell harvester (Brandel, Gaithersburg, MD, USA). The filter components associated to each group were pooled and measured in a well counter (Uppsala Imanet AB, GE Healthcare, Uppsala, Sweden). Tissue samples and references were prepared in triplicates, and filter binding controls, in duplicates.
Tissue protein content (in milligram protein per sample) was assessed by a Bio-Rad Protein Assay (Bio-Rad, Hercules, CA, USA), and absorbance was measured with an EL808 microplate reader (BioTek, Winooski, VT, USA). The BP, defined as the ratio between the receptor density [Bmax] and dissociation constant [Kd], was determined by nonlinear regression.

[5] = Quantification of pancreatic uptake by one-tissue compartment model; type: in vivo, piglets; conditions: pancreas; for Kp: male, Swedish landrace, pig, intravenous; for K1, average / k2, average / K1 / k2: defluorination-corrected plasma input
From the text: A one-tissue compartment model was used to estimate the compound parameter VT as well as the tissue specific rate constants K1 to k2 in the pancreas. The Cp was used as an input function, corrected for tracer metabolism by defluorination parameter kdefluorination determined from cortical bone uptake. The kinetic parameters were estimated by the PMOD modeling module PKIN.

[6] = set-up: method as in PMID 20346875; conditions: piglet model, PET/CT 90 min after tracer administration; cited from earlier work
[7] = system: VMAT2; set-up: method as in PMID 20346875; conditions: cited from earlier work
[8] = biological target: T1, VMAT2 (Homo sapiens, UniProt Q05940); set-up: method as in PMID 20346875; conditions: human islet homogenate, described previously; cited from earlier work
T1 construct: tissue preparations were isolated from human pancreata and homogenized; from tissue; host or cells: human pancreas: endocrine (80% to 85% islets) and exocrine tissue homogenates
T1 sequence (Q05940 whole entry): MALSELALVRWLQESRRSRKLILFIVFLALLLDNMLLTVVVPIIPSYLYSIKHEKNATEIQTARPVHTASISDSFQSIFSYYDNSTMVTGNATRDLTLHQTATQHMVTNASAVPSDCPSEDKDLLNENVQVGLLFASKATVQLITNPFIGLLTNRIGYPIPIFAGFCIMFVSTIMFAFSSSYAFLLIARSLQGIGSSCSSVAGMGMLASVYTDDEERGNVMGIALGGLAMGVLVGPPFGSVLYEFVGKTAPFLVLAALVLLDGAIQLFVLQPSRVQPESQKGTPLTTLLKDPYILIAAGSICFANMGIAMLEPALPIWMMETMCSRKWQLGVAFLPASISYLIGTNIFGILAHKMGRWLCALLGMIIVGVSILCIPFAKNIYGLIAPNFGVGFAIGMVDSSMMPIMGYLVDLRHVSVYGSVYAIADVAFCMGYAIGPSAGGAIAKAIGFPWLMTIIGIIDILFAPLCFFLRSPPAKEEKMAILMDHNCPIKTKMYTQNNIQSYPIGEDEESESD

[9] = Procedure: Arterial blood and plasma samples were measured using the well-counter. The animals were positioned with a field of view as in the [^18F]FE-DTBZ-d4 dynamic scan.
Tissue volumes of interest [VOIs] and regions of interest [ROIs] were delineated on CT images or partially summed PET images. The kinetic uptake in the cortical bone tissue for all three tracers was assessed by generating isocontour VOIs over the lumbar vertrebral bodies in CT images.
The HTR is given in Equation 2, where φ1, φ2, θ1, and θ2 are macro-parameters determined by the rate constants K1, k2, k3, and k4 [18]. VT and VS denote the total and specific binding distribution volumes, respectively:
The [^18F]F^- HTR in the cortical bone was determined by the kinetic modeling module PKIN for PMOD.

[10] = average, read-out: t1/2 (defluorination), average
[11] = read-out: Half-life stability against defluorination
[12] = individual experiments, [^18F]FE-DTBZ from retrospective analysis of earlier data
[13] = mean ± SEM as given in text/footnote
[14] = cortical spinal bone, average of 3 pigs
[15] = cortical spinal bone, individual pigs
[16] = cortical spinal bone, mean ± SEM as given in text

Radiochemical purity of the formulated product (stability) [1]: > 98%
Bile tracer and metabolites ([2]; i.v. bolus): > 10 SUV
Pancreas uptake after 90 min ([2]; i.v. bolus, 90 min): 1.8 SUV
Pancreas average peak uptake ([2]; i.v. bolus, shortly after administration): 2.64 SUV
Spinal column vertebrae VOIs uptake ([2]; within the initial minutes, no further accumulation): 1.4 SUV
half-life [3, 10]: 7.23 h
half-life [3, 11]: > 6 h
kdefluorination, average ([3]; average): 2.67e-05 s⁻¹
kdefluorination [3, 13]: 2.67e-05 ± 1.2e-05 s⁻¹
Increase in half-life stability ([3]; vs non-deuterated analogue): six fold increase
BPislet/BPexocrine ratio [4]: 16
Kp ([5]; average, read-out: VT, average): 3.69
K1, average ([5]; average): 0.81 (cc/min)/cc
k2, average ([5]; average): 0.26 min⁻¹
Compound: COc1cc2c(cc1OCCF)CCN1C[C@@H](CC(C)C)[C@H](O)C[C@H]21 [[^18F]FE-DTBZ-d4, (2R,3R,11bR)-9-(2-fluoroethoxy)-3-isobutyl-10-methoxy-2,3,4,6,7,11b-hexahydro-1H-pyrido[2,1-a]isoquinolin-2-ol]
t1/2 (defluorination) ([3]; individual experiments): 7.312 h and 27.507 h and 3.292 h and 13.13 h
kdefluorination [3, 12]: 2.67e-05 s⁻¹ and 7e-06 s⁻¹ and 5.83e-05 s⁻¹ and 1.47e-05 s⁻¹
K1 ([5]; individual experiments): 0.65 (cc/min)/cc and 1.09 (cc/min)/cc and 1.13 (cc/min)/cc and 0.36 (cc/min)/cc
k2 ([5]; individual experiments): 0.32 min⁻¹ and 0.25 min⁻¹ and 0.37 min⁻¹ and 0.10 min⁻¹
VT (total distribution volume, K1/k2) ([5]; individual experiments): 2.05 cc/cc and 4.39 cc/cc and 3.06 cc/cc and 3.64 cc/cc

half-life [3, 10]: 1.06 h
half-life ([3]; individual experiments, read-out: t1/2 (defluorination)): 0.77 h
half-life [3, 11]: > 1 h
t1/2 (defluorination) ([3]; individual experiments): 1.46 h and 0.952 h
kdefluorination, average ([3]; average): 0.0002 s⁻¹
kdefluorination [3, 13]: 0.0002 ± 3.3e-05 s⁻¹
Kp ([5]; average, read-out: VT, average): 4.17
Kp ([5]; individual experiments, read-out: VT (total distribution volume, K1/k2)): 3.39
K1, average ([5]; average): 0.26 (cc/min)/cc
k2, average ([5]; average): 0.064 min⁻¹
k2 ([5]; individual experiments): 0.08 min⁻¹ and 0.07 min⁻¹ and 0.04 min⁻¹
VT (total distribution volume, K1/k2) ([5]; individual experiments): 4.47 cc/cc and 4.65 cc/cc
Compound: COc1cc2c(cc1OCC[18F])CCN1CC(CC(C)C)C(O)CC21 (centres unmarked) [[^18F]FE-DTBZ]
Spinal column uptake at the end of the experiments [6]: 3.1 SUV
BPislet/BPexocrine ratio ([7]; from previously described BP values): 11.2
BPexocrine ([7]; human exocrine homogenate, described previously): 9.8 femtomoles per milligram protein per nanoMolar
BPislet [8]: 110.4 femtomoles per milligram protein per nanoMolar
kdefluorination [3, 12]: 0.00025 s⁻¹ and 0.000132 s⁻¹ and 0.0002023 s⁻¹
K1 ([5]; individual experiments): 0.27 (cc/min)/cc and 0.30 (cc/min)/cc and 0.20 (cc/min)/cc

Compound: [18FH] [[^18F]F^-, Fluorine-18 fluoride]
Plasma delay, average ([9]; cortical spinal bone model, average of 3 pigs): 25.67 s
Plasma delay ([9]; cortical spinal bone model, individual pigs): 25.6 s and 23.5 s and 27.9 s
K1, average [9, 14]: 0.57 (cc/min)/cc
VS, average [9, 14]: 27.53 cc/cc
VS/VT, average [9, 14]: 0.99
VT, average [9, 14]: 27.9 cc/cc
k2, average [9, 14]: 1.54 min⁻¹
k3, average [9, 14]: 0.42 min⁻¹
k4, average [9, 14]: 0.0058 min⁻¹
K1 [9, 15]: 0.71 (cc/min)/cc and 0.44 (cc/min)/cc and 0.56 (cc/min)/cc
VS (specific binding distribution volume) [9, 15]: 35.9 cc/cc and 19.8 cc/cc and 26.9 cc/cc
VS/VT [9, 15]: 0.99
VT (total distribution volume) [9, 15]: 36.4 cc/cc and 20.1 cc/cc and 27.2 cc/cc
k2 [9, 15]: 1.27 min⁻¹ and 1.78 min⁻¹ and 1.57 min⁻¹
k3 [9, 15]: 0.39 min⁻¹ and 0.5 min⁻¹ and 0.38 min⁻¹
k4 [9, 15]: 0.0061 min⁻¹ and 0.0062 min⁻¹ and 0.0051 min⁻¹
k3 [9, 16]: 0.42 ± 0.04 min⁻¹
k4 [9, 16]: 0.0058 ± 0.0004 min⁻¹
Signal coming from the nonspecific or free tracer ([9]; cortical spinal bone, model prediction): less than 1%
